Source: patent US6376497B1, “Antifungal azole derivatives having a fluorinated vinyl group and process for preparing same” (Korea Research Institute of Chemical Technology, priority 1999, dated 2002)
In brackets after ≈: the same amount, converted by molar mass.

What was measured:
Assay in all cases: In vitro antifungal activity, microbroth dilution MIC
Type in all cases: cell-based
[1] = test system: Aspergillus niger A. 16404; details: 4 to 48 hours; for Minimal inhibitory concentration(MIC), A. niger A. 16404: RPMI-1640, 35° C., no growth observed; for Minimal inhibitory concentration (MIC): A. niger A. 16404, RPMI-1640, 35° C.
In short: (§1)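 Broth microdilution adapted from NCCLS M27, in RPMI-1640 with 0.165 M MOPS, pH 7.0. Yeast or mould inoculum at 2×10^3 CFU/ml was mixed 1:1 with DMSO-derived compound solutions (200 to 0.10 μg/ml before mixing) and incubated at 35 °C for 4 to 48 h. MIC was the concentration showing no growth.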

[2] = test system: Candida albicans IFO. 1385; details: 4 to 48 hours; for Minimal inhibitory concentration(MIC), C. albicans IFO. 1385: RPMI-1640, 35° C., no growth observed; for Minimal inhibitory concentration (MIC): C. albicans IFO. 1385, RPMI-1640, 35° C.
In short: as §1

[3] = test system: Candida pseudotropicalis K. 11658; details: 4 to 48 hours; for Minimal inhibitory concentration(MIC), C. pseudotropicalis K. 11658: RPMI-1640, 35° C., no growth observed; for Minimal inhibitory concentration (MIC): C. pseudotropicalis K. 11658, RPMI-1640, 35° C.
In short: as §1

[4] = test system: Torulopsis glabrata B. 16205; details: 4 to 48 hours; for Minimal inhibitory concentration(MIC), T. glabrata B. 16205: RPMI-1640, 35° C., no growth observed; for Minimal inhibitory concentration (MIC): T. glabrata B. 16205, RPMI-1640, 35° C.
In short: as §1

[5] = test system: Cryptococcus neoformans A. 34144; details: 4 to 48 hours; for Minimal inhibitory concentration(MIC), Cry. neoformans A. 34144: RPMI-1640, 35° C., no growth observed; for Minimal inhibitory concentration (MIC): Cry. neoformans A. 34144, RPMI-1640, 35° C.
In short: as §1

[6] = test system: Cryptococcus neoformans IFM. 40092; details: 4 to 48 hours; for Minimal inhibitory concentration(MIC), Cry. neoformans IFM. 40092: RPMI-1640, 35° C., no growth observed; for Minimal inhibitory concentration (MIC): Cry. neoformans IFM. 40092, RPMI-1640, 35° C.
In short: as §1

[7] = test system: Candida tropicalis A. 13803; details: 4 to 48 hours; for Minimal inhibitory concentration(MIC), C. tropicalis A. 13803: RPMI-1640, 35° C., no growth observed; for Minimal inhibitory concentration (MIC): C. tropicalis A. 13803, RPMI-1640, 35° C.
In short: as §1

[8] = test system: Cryptococcus neoformans B. 42419; details: 4 to 48 hours; for Minimal inhibitory concentration(MIC), Cry. neoformans B. 42419: RPMI-1640, 35° C., no growth observed; for Minimal inhibitory concentration (MIC): Cry. neoformans B. 42419, RPMI-1640, 35° C.
In short: as §1

Candida krusei K. 11655 = details: 4 to 48 hours; for Minimal inhibitory concentration(MIC), C. krusei K. 11655: RPMI-1640, 35° C., no growth observed; for Minimal inhibitory concentration (MIC): C. krusei K. 11655, RPMI-1640, 35° C.
In short: as §1

[9] = test system: Trichophyton mentagrophytes A. 9129; details: 4 to 48 hours; for Minimal inhibitory concentration(MIC), T. mentagrophytes A. 9129: RPMI-1640, 35° C., no growth observed; for Minimal inhibitory concentration (MIC): T. mentagrophytes A. 9129, RPMI-1640, 35° C.
In short: as §1

[10] = test system: Aspergillus furnigatus B. 19119; details: 4 to 48 hours; for Minimal inhibitory concentration(MIC), A furnigatus B. 19119: RPMI-1640, 35° C., no growth observed; for Minimal inhibitory concentration (MIC): A furnigatus B. 19119, RPMI-1640, 35° C.
In short: as §1

[11] = test system: Candida albicans A. 10231; details: 4 to 48 hours; for Minimal inhibitory concentration(MIC), C. albicans A. 10231: RPMI-1640, 35° C., no growth observed; for Minimal inhibitory concentration (MIC): C. albicans A. 10231, RPMI-1640, 35° C.
In short: as §1

Candida albicans C1-2 = details: 4 to 48 hours; for Minimal inhibitory concentration(MIC), C. albicans C1-2: RPMI-1640, 35° C., no growth observed; for Minimal inhibitory concentration (MIC): C. albicans C1-2, RPMI-1640, 35° C.
In short: as §1

[12] = test system: Candida parapsitosis A. 7330; details: 4 to 48 hours; for Minimal inhibitory concentration(MIC), C. parapsitosis A. 7330: RPMI-1640, 35° C., no growth observed; for Minimal inhibitory concentration (MIC): C. parapsitosis A. 7330, RPMI-1640, 35° C.
In short: as §1

[13] = test system: Trichophyton mentagrophytes B. 32663; details: 4 to 48 hours; for Minimal inhibitory concentration(MIC), T. mentagrophytes B. 32663: RPMI-1640, 35° C., no growth observed; for Minimal inhibitory concentration (MIC): T. mentagrophytes B. 32663, RPMI-1640, 35° C.
In short: as §1

Row | Structure (SMILES) | Minimal inhibitory concentration(MIC), A. niger A. 16404 [1] [µg/mL] | Minimal inhibitory concentration(MIC), C. albicans IFO. 1385 [2] [µg/mL] | Minimal inhibitory concentration(MIC), C. pseudotropicalis K. 11658 [3] [µg/mL] | Minimal inhibitory concentration(MIC), T. glabrata B. 16205 [4] [µg/mL] | Minimal inhibitory concentration(MIC), Cry. neoformans A. 34144 [5] [µg/mL] | Minimal inhibitory concentration(MIC), Cry. neoformans IFM. 40092 [6] [µg/mL] | Minimal inhibitory concentration(MIC), C. tropicalis A. 13803 [7] [µg/mL] | Minimal inhibitory concentration(MIC), Cry. neoformans B. 42419 [8] [µg/mL] | Minimal inhibitory concentration(MIC), C. krusei K. 11655 (Candida krusei K. 11655) [µg/mL] | Minimal inhibitory concentration(MIC), T. mentagrophytes A. 9129 [9] [µg/mL] | Minimal inhibitory concentration(MIC), A furnigatus B. 19119 [10] [µg/mL] | Minimal inhibitory concentration(MIC), C. albicans A. 10231 [11] [µg/mL] | Minimal inhibitory concentration(MIC), C. albicans C1-2 (Candida albicans C1-2) [µg/mL] | Minimal inhibitory concentration(MIC), C. parapsitosis A. 7330 [12] [µg/mL] | Minimal inhibitory concentration(MIC), T. mentagrophytes B. 32663 [13] [µg/mL] | Minimal inhibitory concentration (MIC) [1] [µg/mL] | Minimal inhibitory concentration (MIC) [2] [µg/mL] | Minimal inhibitory concentration (MIC) [3] [µg/mL] | Minimal inhibitory concentration (MIC) [11] [µg/mL] | Minimal inhibitory concentration (MIC) (Candida albicans C1-2) [µg/mL] | also measured
1 | FC(=Cc1cccc(Cl)c1)Oc1ccc(OCC2COC(Cn3ccnc3)(c3ccc(Cl)cc3Cl)O2)cc1 (mixture of isomers) [Ex. 91] | >100 | 6.25 | >100 | >100 | 1.56 | 0.78 | >100 | 1.56 | >100 | 100 | 100 | 100 | 100 | >100 | >100 | – | – | – | – | – | –
2 | FC(=Cc1ccccc1)Oc1ccc(OCC2COC(Cn3ccnc3)(c3ccc(Cl)cc3Cl)O2)cc1 (mixture of isomers) [Ex. 88] | 100 | 6.25 | >100 | >100 | 1.56 | 0.78 | >100 | 1.56 | >100 | 100 | >100 | 100 | 100 | >100 | 100 | – | – | – | – | – | –
3 | FC(=C(c1cccc(Cl)c1)C(F)(F)F)N1CCN(c2ccc(OCC3COC(Cn4ccnc4)(c4ccc(Cl)cc4Cl)O3)cc2)CC1 (mixture of isomers) [Ex. 133] | >100 | 3.13 | 1.56 | >100 | 0.78 | 0.20 | >100 | 0.39 | 1.56 | 6.25 | >100 | >100 | >100 | 3.13 | 1.56 | – | – | – | – | – | –
4 | FC(OCC1COC(Cn2ccnc2)(c2ccc(Cl)cc2Cl)O1)=C(c1cccc(Cl)c1)C(F)(F)F (stereo not drawn) [Ex. 30] | – | – | – | – | – | – | – | – | – | – | – | – | – | – | – | 25.0 (≈ 45.3 µM) | 1.56 (≈ 2.83 µM) | >100 | 25.0 (≈ 45.3 µM) | 25.0 (≈ 45.3 µM) | Minimal inhibitory concentration (MIC) [4]: 12.5 µg/mL (≈ 22.7 µM); Minimal inhibitory concentration (MIC) [5]: 0.78 µg/mL (≈ 1.41 µM); Minimal inhibitory concentration (MIC) [6]: 0.20 µg/mL (≈ 0.362 µM); Minimal inhibitory concentration (MIC) [7]: >100 µg/mL; Minimal inhibitory concentration (MIC) [8]: 0.78 µg/mL (≈ 1.41 µM); Minimal inhibitory concentration (MIC) (Candida krusei K. 11655): >100 µg/mL; Minimal inhibitory concentration (MIC) [9]: 6.25 µg/mL (≈ 11.3 µM); Minimal inhibitory concentration (MIC) [10]: 12.5 µg/mL (≈ 22.7 µM); Minimal inhibitory concentration (MIC) [12]: >100 µg/mL; Minimal inhibitory concentration (MIC) [13]: 1.56 µg/mL (≈ 2.83 µM)
5 | FC(=Cc1ccc(Cl)cc1)OCC1COC(Cn2ccnc2)(c2ccc(Cl)cc2Cl)O1 (stereo not drawn) [Ex. 14] | – | – | – | – | – | – | – | – | – | – | – | – | – | – | – | 6.25 (≈ 12.9 µM) | 0.39 (≈ 0.806 µM) | 3.13 (≈ 6.47 µM) | 6.25 (≈ 12.9 µM) | 12.5 (≈ 25.8 µM) | Minimal inhibitory concentration (MIC) [4]: 6.25 µg/mL (≈ 12.9 µM); Minimal inhibitory concentration (MIC) [5]: 0.78 µg/mL (≈ 1.61 µM); Minimal inhibitory concentration (MIC) [6]: 0.39 µg/mL (≈ 0.806 µM); Minimal inhibitory concentration (MIC) [7]: 12.5 µg/mL (≈ 25.8 µM); Minimal inhibitory concentration (MIC) [8]: 0.78 µg/mL (≈ 1.61 µM); Minimal inhibitory concentration (MIC) (Candida krusei K. 11655): 6.25 µg/mL (≈ 12.9 µM); Minimal inhibitory concentration (MIC) [9]: 1.56 µg/mL (≈ 3.22 µM); Minimal inhibitory concentration (MIC) [10]: 6.25 µg/mL (≈ 12.9 µM); Minimal inhibitory concentration (MIC) [12]: 12.5 µg/mL (≈ 25.8 µM); Minimal inhibitory concentration (MIC) [13]: 0.78 µg/mL (≈ 1.61 µM)
6 | FC(Oc1ccc(OCC2COC(Cn3ccnc3)(c3ccc(Cl)cc3Cl)O2)cc1)=C(c1cc(Cl)cc(Cl)c1)C(F)(F)F (mixture of isomers) [Ex. 104] | >100 | 3.13 | >100 | 100 | 3.13 | 0.78 | >100 | 3.13 | >100 | 50.0 | >100 | 100 | >100 | >100 | 25.0 | – | – | – | – | – | –
7 | FC(=Cc1ccccc1)OCC1COC(Cn2ccnc2)(c2ccc(F)cc2F)O1 (mixture of isomers) [Ex. 36] | – | – | – | – | – | – | – | – | – | – | – | – | – | – | – | 12.5 | 0.78 | 25.0 | 50.0 | 50.0 | Minimal inhibitory concentration (MIC) [4]: 25.0 µg/mL; Minimal inhibitory concentration (MIC) [5]: 6.25 µg/mL; Minimal inhibitory concentration (MIC) [6]: 0.78 µg/mL; Minimal inhibitory concentration (MIC) [7]: 100 µg/mL; Minimal inhibitory concentration (MIC) [8]: 3.13 µg/mL; Minimal inhibitory concentration (MIC) (Candida krusei K. 11655): 50.0 µg/mL; Minimal inhibitory concentration (MIC) [9]: 1.56 µg/mL; Minimal inhibitory concentration (MIC) [10]: 1.56 µg/mL; Minimal inhibitory concentration (MIC) [12]: 25.0 µg/mL; Minimal inhibitory concentration (MIC) [13]: 0.39 µg/mL
8 | FC(=Cc1ccc2c(c1)OCO2)OCC1COC(Cn2cncn2)(c2ccc(Cl)cc2Cl)O1 (mixture of isomers) [Ex. 75] | >100 | 25.0 | 25.0 | 50.0 | 1.56 | 0.39 | 100 | 1.56 | 100 | 3.13 | 100 | – | – | >100 | 3.13 | – | – | – | 100 | 100 | –
